Consider 2 molecules from US20240034649A1, “METHODS FOR ERADICATING BIOFILMS FROM PLUMBING SYSTEMS” (GORDON & ROSENBLATT, LLC, priority 2014, published 2024).

Data set [1] deals with Pseudomonas aeruginosa biofilms. Briefly: Minimal Biofilm Eradication Concentration (MBEC) assay, Calgary biofilm device. The format is cell-based. Conditions: 22-25° C.
The conditions of data set [2]: at STP; cited from earlier work.
A further data set has as its system Legionella. Particulars: cited from earlier work.
The subject of the next data set is Biofilm. Conditions: shock dose 50-80 mg/mL over 8 hours, acidic conditions, outlets flushed approx. 1 hour; cited from earlier work.

With `OCl` [Bleach, sodium hypochlorite], the Log10 reduction in data set [1] (Bleach 3.15 ppm, pH 6.5, 30 min) is listed as 0.16 CFU/mm^2; in data set [1] (Bleach 3.15 ppm, pH 7.5, 30 min), 0.96 CFU/mm^2; in data set [1] (Bleach 6.31 ppm, pH 6.5, 30 min) it was “Total inhibition”; in data set [1] (Bleach 6.31 ppm, pH 7.5, 30 min) it was 1.91 CFU/mm^2; in data set [1] (Bleach 12.6 ppm, pH 6.5, 30 min), “Total inhibition”; in data set [1] (Bleach 12.6 ppm, pH 7.5, 30 min) it was 3.03 CFU/mm^2. Moreover, the Log10 reduction entry is on record as “Total inhibition” in data set [1] (Bleach 50.5 ppm, pH 6.5, 30 min) and “Total inhibition” in data set [1] (Bleach 50.5 ppm, pH 7.5, 30 min).

As to chlorine dioxide [CD], the “solubility in water relative to chlorine” value in data set [2] is reported as “approximately 10 times”. The Log10 reduction in data set [1] (CD 3.12 ppm, pH 6.5, 30 min) was 0.82 CFU/mm^2; in data set [1] (CD 3.12 ppm, pH 7.5, 30 min) it was 1.63 CFU/mm^2; in data set [1] (CD 6.25 ppm, pH 6.5, 30 min), 2.56 CFU/mm^2; in data set [1] (CD 6.25 ppm, pH 7.5, 30 min) it was 2.38 CFU/mm^2; in data set [1] (CD 12.5 ppm, pH 6.5, 30 min), 2.34 CFU/mm^2; in data set [1] (CD 12.5 ppm, pH 7.5, 30 min) it was 2.49 CFU/mm^2. Further, the Log10 reduction entry in data set [1] (CD 50.0 ppm, pH 6.5, 30 min) is “Total inhibition”; in data set [1] (CD 50.0 ppm, pH 7.5, 30 min), “total inhibition”. The “time needed to achieve significant reduction in Legionella positivity” value in the data set with Legionella is given as more than 12 months. Besides, the “bacteria recovered from showerheads after treatment” value with Biofilm is reported as more than 3000 cfu/ml.
